One series has as its target T1, EGFR DM (L858R/T790M) (Homo sapiens, UniProt P00533, L858R/T790M).
T1 construct: His tag
The experiment in a line: TR-FRET probe displacement assay, EGFR DM. Format: binding. The settings on record: for IC50 / DM pIC50: 30 min incubation, mean of at least 3 replicates; for IC50: read-out: DM pIC50 (converted). The method, then:
(§1) The binding mode of gefitinib, typical of an anilinoquinazoline-based kinase inhibitor, is well characterised, with the morpholine side-chain extending into the solvent exposed region where a variety of substituents are tolerated. […] Accordingly, probe compound 6 was prepared, in which the morpholine was replaced by a piperazine and a BODIPY fluorophore was attached via a 4-aminobutanoate spacer (Fig. 3a). A related sapitinib-derived tracer has subsequently been described. Compound 6 was employed in a time-resolved Förster-resonance energy transfer (TR-FRET) assay with EGFR bound to a terbium-containing antibody (Fig. 3b). In line with our previous work exploring the activity of anilinoquinazoline-based acrylamide TCIs[14], the incubation time for the assay was set at 30 mins.
(§2) Compounds (dissolved to 10 mM in DMSO) were dispensed into black low-volume 384 well assay plates (Corning) over a final concentration range of 100000, 30,000, 10,000, 3000, 1000, 300, 100, 30, 10, and 3 nM using an Echo 550 (Labcyte). Positive control compound and DMSO as a negative control were dispensed into the first and last well, respectively. Each well was backfilled with DMSO to a final volume of 200 nl, resulting in final assay DMSO concentrations of 1%. […] Plates were read using a PheraStar FS (BMG Labtech) at Ex337nm […]. The data were analysed using GraphPad Prism/Dotmatics Studies Software. Assays were conducted in technical replicate and repeated as a biological duplicate.
A general note: TR-FRET usually uses a lanthanide donor and a delayed reading to cut background.

Another series concerns the target T2, EGFR WT (Homo sapiens, UniProt P00533).
T2 construct: made in house; host or cells: Sf9 insect cells (MultiBac baculovirus)
Put plainly: TR-FRET probe displacement assay, EGFR WT. The class given is binding. The settings on record: for IC50 / WT pIC50: 30 min incubation, mean of at least 3 replicates; for IC50: read-out: WT pIC50 (converted). The method, then: as §1, §2

A further series relates to A431 cells. Put plainly: Growth inhibition in A431 cells (SRB, 72 h). Format: cell-based. The settings on record: Homo sapiens, A-431, A431 cell viability, n = 1. As to the method:
A431 cells purchased from ECACC, Cat. 85090402, were plated on day 0 in a 96-well plate at a density known to allow for exponential growth over 72 h in DMEM (Sigma-Aldrich, Cat No. D5796) supplemented with 10% FBS (Gibco, Cat No. 10270-106). On day 1, the compounds were diluted to the required concentration in DMEM + 10% FBS media, ensuring that the final DMSO concentration was 0.1% once added to cells. The cells were then incubated for 72 h at 37 °C with 5% CO2. Cells were then fixed by adding 50% (wt/vol) TCA to each well of the plate and left at 4 °C for 1 h. The plates were then washed thoroughly with water, 100 μL of 0.4% SRB solution was added to the wells, and left at room temperature for 30 min. The plates were rinsed with 1% AcOH and then left to air-dry in a drying cabinet for 1 h. Once dry, 100 μL of 10 mM tris pH 10.5 was added to each well and the plates were placed on a plate shaker for 10 min. The absorbance was read at 570 nm using a FluoStar Omega plate reader. Data is n = 1 from 3 replicates, […]

For a further series, the target named is T3, WT EGFR (Homo sapiens, UniProt P00533).
T3 construct: AssayQuant Technologies Inc. (contract measurement)
T3 sequence (P00533 25-1210): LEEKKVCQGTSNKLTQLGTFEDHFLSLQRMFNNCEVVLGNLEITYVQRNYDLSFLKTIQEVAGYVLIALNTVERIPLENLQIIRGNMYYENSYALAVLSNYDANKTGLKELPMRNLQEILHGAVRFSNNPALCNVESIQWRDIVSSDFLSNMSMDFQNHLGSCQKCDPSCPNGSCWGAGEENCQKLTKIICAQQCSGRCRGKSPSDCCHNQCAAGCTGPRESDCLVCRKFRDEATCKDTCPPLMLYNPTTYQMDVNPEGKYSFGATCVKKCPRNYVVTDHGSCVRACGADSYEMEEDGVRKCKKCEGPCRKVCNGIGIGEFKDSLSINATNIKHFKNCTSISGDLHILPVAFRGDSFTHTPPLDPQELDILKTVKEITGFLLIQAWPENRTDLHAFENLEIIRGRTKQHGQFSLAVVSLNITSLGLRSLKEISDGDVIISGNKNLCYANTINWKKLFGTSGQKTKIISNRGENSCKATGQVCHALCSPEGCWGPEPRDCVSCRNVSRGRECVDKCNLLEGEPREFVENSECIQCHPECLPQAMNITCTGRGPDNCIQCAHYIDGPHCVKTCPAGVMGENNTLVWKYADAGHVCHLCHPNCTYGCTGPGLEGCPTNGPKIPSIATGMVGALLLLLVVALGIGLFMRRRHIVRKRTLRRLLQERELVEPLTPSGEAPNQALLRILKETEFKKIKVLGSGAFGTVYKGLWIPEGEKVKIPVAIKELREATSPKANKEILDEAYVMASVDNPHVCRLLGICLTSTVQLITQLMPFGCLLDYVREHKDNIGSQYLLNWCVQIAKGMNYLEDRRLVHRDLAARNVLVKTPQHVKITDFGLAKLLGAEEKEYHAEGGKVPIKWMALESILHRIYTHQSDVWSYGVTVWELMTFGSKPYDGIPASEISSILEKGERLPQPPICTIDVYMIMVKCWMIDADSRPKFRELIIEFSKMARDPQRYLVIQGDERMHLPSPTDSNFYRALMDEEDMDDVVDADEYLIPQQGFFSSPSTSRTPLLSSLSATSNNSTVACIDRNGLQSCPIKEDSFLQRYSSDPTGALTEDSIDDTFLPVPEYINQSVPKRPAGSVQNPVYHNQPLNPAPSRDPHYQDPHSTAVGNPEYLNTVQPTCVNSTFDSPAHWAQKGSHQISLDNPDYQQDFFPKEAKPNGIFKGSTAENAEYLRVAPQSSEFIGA
The experiment in a line: Intact protein mass spectrometry. The settings on record: 15 µM compound, 4 µM EGFR, 4 hr, ambient temperature. The class given is binding. The method, then: Compounds were suspended to 10 mM in 100% DMSO and were added to 4 µM EGFR to achieve the final compound concentration of 15 µM in 1% DMSO, in 25 mM TRIS pH8, 150 mM NaCL, 5% glycerol before incubating at ambient temperature for the 4 hr time prior to analysis. […] 1 µL of purified protein (~1 mg/mL) was injected onto a MS Pac DS-10 Desalter cartridge ((Thermo Fisher Scientific), PN: 089170, 2.1 × 10 mm) for desalting and reversed phase separation at 70 °C. The mobile phase was 0.1% (v/v) formic acid in LC-MS grade water (A) and LC-MS grade acetonitrile (B) with separation performed over 7.5 min. […] Proteins were detected in positive ion mode using electrospray ionisation with nebuliser pressure of 45 psig, drying gas flow of 5 L/min, and source gas temperature of 325 °C. Sheath gas temperature of 400 °C and gas flow of 11 L/min, capillary voltage of 3500 V and nozzle voltage of 2000V were also used. Mass spectra were acquired using MassHunter Acquisition software (version B.08.00) over a mass range of 100–3000 m/z, at a rate of 1 spectra/s and 1000 ms/spectrum in standard mass range (3200 m/z) at 2 GHz. The instrument had been calibrated over the selected mass range prior to analysis.

Series [1] has as its system pEGFR in WT EGFR overexpressing A431 cells. The experiment in a line: Cellular pEGFR inhibition by HTRF in A431 cells. The settings on record: Homo sapiens, A-431, n = 1, read-out: pIC50 (A431) cellular pEGFR inhibition (converted). Format: cell-based. The method, then:
(§3) Cells were plated at 20,000 cells per well in 96 well plates and placed at 37°C 5% CO2. Once adhered (after 24 h) cells were treated with compounds dissolved in DMSO at a final concentration of 0.1% DMSO in media. Compounds were diluted in media then added to cells for 2.5 hours in duplicate. 100 ng/ml EGF (ThermoFisher, PHG0311) was is added to all compound treated cells as well as a control for 30 mins. Compound and media were removed from the cells, then 50ul of HTRF lysis buffer was added (lysis buffer was diluted from 4X stock to 1X in DI water, with 1% blocking agent also added). Cells were lysed on a plate shaker (2000 rpm) for 30 minutes at room temperature. pEGFR expression was monitored using the Cisbio Phospho-EGFR (Tyr1068) cellular kit (64EG1PEH). Total EGFR expression was monitored using the Cisbio Total EGFR cellular kit (64NG1PEH) as per manufacturer’s instructions. Fluorescence emission was read at two different wavelengths (665 nm and 620 nm) on a PheraStar. Results were calculated as the ratio of pEGFR/ total EGFR and then the percentage of 0 µM control. Data is n = 1 from 2 replicates.

The next series deals with GSH. The experiment in a line: GSH reactivity (glutathione half-life). The class given is physicochemical. As to conditions: 4.6 mM glutathione (GSH) in phosphate buffer; 4.6 mM GSH, 50 µM compound, pH 7.4 phosphate buffer, 37 °C; read-out: GSH t1/2 (converted). The method, then:
Compounds were suspended to 10 mM in 100% DMSO and were added to 4.6 mM GSH to achieve the final compound concentration of 50 µM in pH 7.4 phosphate buffer before incubating at 37 °C. Compound reaction with GSH was monitored by LC-MS on a Waters Acquity UPLC system with PDA and ELSD operating in positive and negative ion electrospray mode, employing an Acquity UPLC BEH C18, […], 2.1 × 50 mm column with 0.1% formic acid and water-acetonitrile (5–95%) for gradient elution over 4 minutes.

In series [2] the test system is pEGFR in DM expressing H1975 cells. The experiment in a line: Cellular pEGFR inhibition by HTRF in H1975 cells. As to conditions: Homo sapiens, NCI-H1975, n = 1, read-out: pIC50 (H1975) cellular pEGFR inhibition (converted). The class given is cell-based. As to the method:
as §3

Experimental findings from article PMC11982232, “Factors affecting irreversible inhibition of EGFR and influence of chirality on covalent binding” (Communications Chemistry, 2025) are described below.

T1 sequence (P00533 25-1210 T790M/L858R): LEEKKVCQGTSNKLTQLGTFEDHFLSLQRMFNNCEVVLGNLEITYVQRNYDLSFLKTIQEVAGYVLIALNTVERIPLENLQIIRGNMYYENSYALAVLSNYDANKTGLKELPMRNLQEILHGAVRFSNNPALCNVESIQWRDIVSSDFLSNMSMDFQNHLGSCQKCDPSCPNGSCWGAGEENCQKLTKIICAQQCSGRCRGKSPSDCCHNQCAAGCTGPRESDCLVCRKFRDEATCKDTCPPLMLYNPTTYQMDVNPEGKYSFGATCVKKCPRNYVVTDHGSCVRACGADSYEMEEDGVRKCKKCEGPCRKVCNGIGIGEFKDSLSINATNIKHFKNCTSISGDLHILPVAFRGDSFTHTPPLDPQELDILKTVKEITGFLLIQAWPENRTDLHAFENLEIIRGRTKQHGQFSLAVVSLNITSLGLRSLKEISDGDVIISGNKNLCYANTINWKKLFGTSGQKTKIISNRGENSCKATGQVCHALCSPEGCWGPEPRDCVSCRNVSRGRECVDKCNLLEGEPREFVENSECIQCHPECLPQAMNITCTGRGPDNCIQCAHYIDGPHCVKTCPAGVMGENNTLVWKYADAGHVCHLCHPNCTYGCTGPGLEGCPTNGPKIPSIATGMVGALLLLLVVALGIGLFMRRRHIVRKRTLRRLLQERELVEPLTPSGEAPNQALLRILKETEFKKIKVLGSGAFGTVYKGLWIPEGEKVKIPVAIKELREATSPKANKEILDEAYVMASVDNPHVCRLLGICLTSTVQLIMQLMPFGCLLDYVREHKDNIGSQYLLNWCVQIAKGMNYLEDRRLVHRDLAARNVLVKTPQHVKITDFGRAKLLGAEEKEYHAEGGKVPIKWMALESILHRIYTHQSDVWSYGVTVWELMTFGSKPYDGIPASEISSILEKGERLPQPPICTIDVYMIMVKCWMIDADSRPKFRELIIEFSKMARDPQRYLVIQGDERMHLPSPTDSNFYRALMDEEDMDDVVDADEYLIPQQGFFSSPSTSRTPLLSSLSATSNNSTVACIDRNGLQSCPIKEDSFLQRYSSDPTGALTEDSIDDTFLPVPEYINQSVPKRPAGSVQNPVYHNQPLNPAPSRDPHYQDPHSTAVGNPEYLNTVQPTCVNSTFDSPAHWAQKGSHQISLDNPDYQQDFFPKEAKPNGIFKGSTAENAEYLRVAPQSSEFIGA
T2 sequence (P00533 25-1210): as the sequence (P00533 25-1210) above

For `COc1cc2ncnc(Nc3ccc(F)c(Cl)c3)c2cc1O[C@H]1CCN(C(C)=O)C1` [Compound 23], the IC50 is 31.6 nM on EGFR DM (L858R/T790M) and 126 nM on EGFR WT.

For `COc1cc2ncnc(Nc3ccc(F)c(Cl)c3)c2cc1O[C@@H]1CCN(C(C)=O)C1` [Compound 22], the IC50 on EGFR DM (L858R/T790M) was 25.1 nM; on EGFR WT, 39.8 nM.

Consider `C=CC(=O)N1CCC(Oc2cc3c(Nc4cccc(Cl)c4F)ncnc3cc2OC)CC1` [Compound 7], for which the “DM pIC50” value at EGFR DM (L858R/T790M) is 8.4 ± 0.03. The “WT pIC50” value on EGFR WT is 8.8 ± 0.1.

By GI50 is commonly meant the concentration at which growth is held to half of that of the control. A lower GI50 goes with greater sensitivity of the cells. With `C=CC(=O)N1CC[C@H](Oc2cc3c(Nc4ccc(F)c(Cl)c4)ncnc3cc2OC)C1` [Compound 17], the IC50 at EGFR DM (L858R/T790M) was 6.31 nM; in series [1], under 10 nM; in series [2] it was 25.1 nM; at EGFR WT, 5.01 nM. For the same compound, in the series with A431 cells, the GI50 is 7.94 nM. The “level of protein modification compared to 16” value at WT EGFR was “two-fold increase”. Besides, in the series on GSH, the half-life at 50 µM was 2460 min.

For orientation: Kd means the equilibrium constant for the complex coming apart. With `COc1cc2ncnc(Nc3ccc(F)c(Cl)c3)c2cc1OCCCN1CCN(C(=O)CCCNC(=O)CCc2ccc3n2[B-](F)(F)[N+]2=C(C)C=C(C)C2=C3)CC1` [Compound 6, N-(4-(4-(3-((4-((3-chloro-4-fluorophenyl)amino)-7-methoxyquinazolin-6-yl)oxy)propyl)piperazin-1-yl)-4-oxobutyl)-3-(5,5-difluoro-7,9-dimethyl-5H-5l4,6l4-dipyrrolo[1,2-c:2’,1’-f][1,3,2]diazaborinin-3-yl)propenamide, reference compound], the Kd on EGFR DM (L858R/T790M) (fluorescent probe) is 3 ± 1.6 µM; at EGFR WT (fluorescent probe), 1600 ± 190 nM.

Take `C=CC(=O)Nc1cc(Nc2nccc(-c3cn(C)c4ccccc34)n2)c(OC)cc1N(C)CCN(C)C` [Compound 2, osimertinib, reference compound]: the half-life at 50 µM in the series with GSH is 150 min.

As for `C=CC(=O)N1CC[C@@H](Oc2cc3c(Nc4ccc(F)c(Cl)c4)ncnc3cc2OC)C1` [Compound 16], the IC50 is 100 nM at EGFR DM (L858R/T790M), 79.4 nM in series [1], 2510 nM in series [2] and 316 nM at EGFR WT. This compound gave a GI50 in the series on A431 cells of 316 nM. Moreover, the half-life at 50 µM in the series on GSH was 2160 min.

For `C=CC(=O)N1CCC(Oc2cc3c(Nc4ccc(F)c(Cl)c4)ncnc3cc2OC)CC1` [Compound 8], the “DM pIC50” value on EGFR DM (L858R/T790M) is 8.0 ± 0.6. Besides, the “WT pIC50” value at EGFR WT worked out at 8.3 ± 0.07.
